Measurements reported in PubChem BioAssay AID1996.
Values after ≈ are worked out from the molar mass of the structure shown.

Conditions: buffer; pH 7.4; 200.0 µM
Compound N/C(CS(=O)(=O)c1ccccc1)=N\OC(=O)c1ccc(F)cc1 has a solubility kinetic of 8.8 µg/mL (≈ 26.2 µM).
Work on N#CCCN1CCN(C(=O)c2c(N)no[n+]2[O-])CC1 yielded a solubility kinetic of over 39.9 µg/mL.
For CCc1ccccc1NC(=O)CCN1C(=O)C2CC=CCC2C1=O (stereo unspecified), the solubility kinetic was over 49 µg/mL.
Work on CCCNC(=S)Nc1ccc(F)cc1F yielded a solubility kinetic of over 34.5 µg/mL.
Cl.O=C(CN1CCCC1)N1c2ccccc2C=Cc2ccccc21 showed a solubility kinetic of over 51.1 µg/mL.
Compound OCc1nc2c(ccc3ccccc32)[nH]1 has a solubility kinetic of over 29.7 µg/mL.
Compound O=S(=O)(Cc1ccccc1Cl)NCc1ccccc1 has a solubility kinetic of 32.1 µg/mL (≈ 109 µM).
CC(=O)c1cccc(NC(=O)c2ccc(C)o2)c1 showed a solubility kinetic of over 36.5 µg/mL.
COc1ccc(-c2c(C(F)(F)F)nn(C)c2NC(=O)c2ccco2)cc1 gave a solubility kinetic of over 54.8 µg/mL.
In the case of Cc1cccc(NC(=O)CSc2nc(C3CC3)nc3ccccc23)c1, the solubility kinetic is reported as 0.3 µg/mL (≈ 0.858 µM).
With Cc1nc([N+](=O)[O-])c(C(=O)OCc2ccc(C#N)cc2)n1C the solubility kinetic was 17.7 µg/mL (≈ 58.9 µM).
In the case of COc1ccccc1CC(=O)Nc1cccc(C(=O)Nc2nccs2)c1, the solubility kinetic is reported as 0.7 µg/mL (≈ 1.91 µM).
For O=C(COC(=O)c1ccc(O)cc1)Nc1ccc(S(=O)(=O)N2CCCC2)cc1, the solubility kinetic was over 60.7 µg/mL.
In the case of O=C(NCC(=O)N1CCCCC1)c1ccc2ccccc2c1, the solubility kinetic is reported as over 44.5 µg/mL.
For CC(=O)N1CCN(C(=O)CCCNC(=O)c2ccc(Cl)cc2)CC1, the solubility kinetic was over 52.8 µg/mL.
Compound Cc1cc(OC(=O)c2cccc(Cl)c2)c([N+](=O)[O-])c(=O)[nH]1 has a solubility kinetic of 40.9 µg/mL (≈ 133 µM).
With Cc1cc2ccccn2c1C(=O)c1ccc(F)cc1 the solubility kinetic was 0.9 µg/mL (≈ 3.55 µM).
For CC(C)(C)c1ccc(NC(=O)Nc2ccc3ccccc3n2)cc1, the solubility kinetic was under 0.2 µg/mL.
CC1CCCN(C(=O)COC(=O)c2cc(Br)ccc2O)C1 (stereo unspecified) gave a solubility kinetic of 40.1 µg/mL (≈ 113 µM).
With CSc1nc(=S)n(-c2ccc([N+](=O)[O-])cc2)c(C)c1C(C)=O the solubility kinetic was 48.2 µg/mL (≈ 144 µM).
Cc1ccc(S(=O)(=O)NCC(=O)NNC(=O)c2ccccc2Cl)cc1C gave a solubility kinetic of over 59.4 µg/mL.
Cc1cc(=O)[nH]c(SC(C)C(=O)Nc2cccc3ccccc23)n1 (stereo unspecified) gave a solubility kinetic of 42.7 µg/mL (≈ 126 µM).
With CNC(=S)N(CCO)Cc1cc2cc3c(cc2[nH]c1=O)OCO3 the solubility kinetic was 19.6 µg/mL (≈ 58.4 µM).
Compound COc1ccc(-c2cc(C(=O)N3CCCCC3)c3ccccc3n2)cc1OC has a solubility kinetic of 51.6 µg/mL (≈ 137 µM).
Cc1nc(NC(=O)c2ccncc2)sc1C(=O)N(C)C showed a solubility kinetic of over 43.6 µg/mL.
Work on Cc1ccsc1C(=O)OCC(=O)N1CCN(c2ccccc2)CC1 yielded a solubility kinetic of over 51.7 µg/mL.
With CC(CN1CCCCC1)OC(=O)c1ccco1.Cl (stereo unspecified) the solubility kinetic was over 41.1 µg/mL.
Compound COc1ccc(NC(=O)c2ccc(C)cc2)cc1 has a solubility kinetic of 5.4 µg/mL (≈ 22.4 µM).
For CCN(CC(=O)Nc1ccc(NC(C)=O)cc1)C(=O)c1ccc(=O)[nH]c1, the solubility kinetic was 50.4 µg/mL (≈ 141 µM).
With C(=C\c1ccco1)/c1ccc2ccccc2n1 the solubility kinetic was 10.7 µg/mL (≈ 48.4 µM).
For CCOC(=O)Cc1csc(N(C)C)n1, the solubility kinetic was 25.4 µg/mL (≈ 119 µM).
In the case of COc1cc2ccccc2cc1C(=O)Nc1ccccc1C, the solubility kinetic is reported as under 0.6 µg/mL.
Work on N#C/C(=C\c1cccnc1)c1ccccc1[N+](=O)[O-] yielded a solubility kinetic of 8 µg/mL (≈ 31.8 µM).
With O=C(Nc1ccccc1Br)C1CCN(S(=O)(=O)c2cccs2)CC1 the solubility kinetic was 7.8 µg/mL (≈ 18.2 µM).
With O=C(C1CC1)N1CCN(c2ccc(F)cc2)CC1 the solubility kinetic was 34.7 µg/mL (≈ 140 µM).
For Cc1cc2ncc(-c3cccs3)nc2cc1C, the solubility kinetic was under 0.3 µg/mL.
COc1ccc(C(=O)N2CCN(CCc3ccccn3)CC2)cc1.Cl gave a solubility kinetic of over 54.3 µg/mL.
For Cc1ccc(S(=O)(=O)N2C(=O)c3cccc4cccc2c34)cc1, the solubility kinetic was 3.7 µg/mL (≈ 11.4 µM).
For O=C(N/N=C/c1ccco1)c1ccc2nc[nH]c2c1, the solubility kinetic was over 38.1 µg/mL.
Compound Cc1ccc(C(=O)NCC(=O)NC2CCCCCC2)cc1 has a solubility kinetic of 21.1 µg/mL (≈ 73.2 µM).
With O=C(O)CC[N+](=O)[O-] the solubility kinetic was over 17.9 µg/mL.
CC(OC(=O)/C=C/c1ccccc1)C(=O)NC1CCCCC1C (stereo unspecified) showed a solubility kinetic of 8.4 µg/mL (≈ 26.6 µM).
COc1ccc(Cl)cc1NC(=O)NCCN1CCNC1=O showed a solubility kinetic of 43.9 µg/mL (≈ 140 µM).
Work on CCN1CCN(c2ccc(S(=O)(=O)N3CCOCC3)cc2N)CC1 yielded a solubility kinetic of over 53.2 µg/mL.
With O=C(COc1ccc(Br)cc1F)NC1CC1 the solubility kinetic was over 43.2 µg/mL.
CC(=O)Nc1nc2ccccc2[nH]1 showed a solubility kinetic of 15.1 µg/mL (≈ 86.2 µM).
CCc1cc(=O)[nH]c(SCC(=O)N2CCOCC2)n1 gave a solubility kinetic of over 42.5 µg/mL.
For Cc1[nH]c(SCC(=O)Nc2cc(C(N)=O)cc(C(N)=O)c2)nc1Cc1ccccc1, the solubility kinetic was over 63.5 µg/mL.
In the case of CCc1nc2sc(C(=O)O)c(N)c2c2c1CCCC2, the solubility kinetic is reported as over 41.5 µg/mL.
Work on O=C(COC(=O)c1cccc(F)c1)NC1CC1 yielded a solubility kinetic of over 35.6 µg/mL.
Compound COCCNc1ccc(N2C(=O)CCCC2=O)cc1[N+](=O)[O-] has a solubility kinetic of 45.8 µg/mL (≈ 149 µM).
In the case of C/C(=N\NC(=O)c1ccncc1)c1cccnc1, the solubility kinetic is reported as over 36 µg/mL.
With COc1ccc(/C=C2\SC(=N)N(c3ccc(F)cc3)C2=O)cc1OC the solubility kinetic was 3.8 µg/mL (≈ 10.6 µM).
Work on CCOc1cc(-c2nc3n(c(=O)c2C#N)CCS3)ccc1O yielded a solubility kinetic of 5.7 µg/mL (≈ 18.1 µM).
In the case of O=C(COC(=O)c1ccccc1Br)Nc1ccccc1F, the solubility kinetic is reported as 5.4 µg/mL (≈ 15.3 µM).
In the case of COCCn1c(C)cc(C(=O)COC(=O)c2ccc([N+](=O)[O-])o2)c1C, the solubility kinetic is reported as over 52.5 µg/mL.
In the case of CC1CCN(Cc2nc(-c3ccc(Cl)cc3)no2)CC1, the solubility kinetic is reported as 2.2 µg/mL (≈ 7.54 µM).
Compound Cc1cccc(CC(=O)Nc2cccnc2)c1 has a solubility kinetic of 31 µg/mL (≈ 137 µM).
O=C(C[n+]1ccccn1)c1ccccc1.[Br-] gave a solubility kinetic of over 41.9 µg/mL.
With Cc1nn(CC(=O)N2CCN(C)CC2)c(=O)c2ccccc12 the solubility kinetic was over 45.1 µg/mL.
In the case of O=C1Nc2ccccc2C1C(C[N+](=O)[O-])c1ccccc1 (stereo unspecified), the solubility kinetic is reported as over 42.3 µg/mL.
For COc1cccc(CN2CCN(c3ncccn3)CC2)c1OC, the solubility kinetic was 35.7 µg/mL (≈ 114 µM).
CCOc1ccc(OCCC(=O)OCC(=O)NC2CC2)cc1 gave a solubility kinetic of over 46.1 µg/mL.
O=c1[nH]c(/C=C/c2ccc([N+](=O)[O-])cc2)c([N+](=O)[O-])c(=O)[nH]1 gave a solubility kinetic of 24.9 µg/mL (≈ 81.8 µM).
Compound COc1ccccc1NC(=S)N1CCn2cccc2C1c1cccnc1 (stereo unspecified) has a solubility kinetic of 42.2 µg/mL (≈ 116 µM).
O=C(Nc1ccccc1C(=O)NC1CC1)c1ccccc1 showed a solubility kinetic of 16.7 µg/mL (≈ 59.6 µM).
Work on COC(=O)Nc1nc2ccc(C(=O)c3cccs3)cc2[nH]1 yielded a solubility kinetic of 0.3 µg/mL (≈ 0.996 µM).
Work on O=C(CN1CCN(C(=O)c2ccccc2)CC1)NC(=O)NCCC1=CCCCC1 yielded a solubility kinetic of over 59.8 µg/mL.
Work on CCCCCCN1C2=NCCCN2c2ccccc21.Cl yielded a solubility kinetic of over 44.1 µg/mL.
Cc1cc(C)cc(OCC(=O)OCC(=O)NC2CC2)c1 showed a solubility kinetic of over 41.6 µg/mL.
In the case of S=C(NCc1ccccc1)Nc1ccc(Oc2ccccc2)cc1, the solubility kinetic is reported as 6.8 µg/mL (≈ 20.3 µM).
CCCCn1c(N)c(N(CCOC)C(=O)CSc2nnc(-c3ccco3)n2CC)c(=O)[nH]c1=O gave a solubility kinetic of over 73.7 µg/mL.
Work on CCN(CC(=O)Nc1ccc(S(=O)(=O)N2CCCC2)cc1)CC(=O)Nc1ccccc1C(F)(F)F yielded a solubility kinetic of 21.2 µg/mL (≈ 41.4 µM).
With OCc1cc(-c2ccc(Cl)c(Cl)c2)on1 the solubility kinetic was over 36.6 µg/mL.
For Cc1ccc(S(=O)(=O)NCC(=O)NCC2CCCCC2)cc1C, the solubility kinetic was over 50.8 µg/mL.
Work on CC(=O)Nc1ccc(S(=O)(=O)N2CCCCC2C(=O)O)cc1 (stereo unspecified) yielded a solubility kinetic of 44.4 µg/mL (≈ 136 µM).
Work on Cc1ccnc(SCC(=O)NC2CC2)n1 yielded a solubility kinetic of over 33.5 µg/mL.
Compound CCCCCC1C/C(=N\O)C=C(C)C1C(=O)OC (stereo unspecified) has a solubility kinetic of over 38 µg/mL.
CC(=O)N1c2ccccc2CCc2ccc(N)cc21.Cl gave a solubility kinetic of over 43.3 µg/mL.
COc1ccc(Cl)cc1NC(=O)CCN1CCOCC1 gave a solubility kinetic of over 44.8 µg/mL.
Cc1ccc(NC(=O)C(=O)NCC2CCCO2)cc1C (stereo unspecified) gave a solubility kinetic of over 41.5 µg/mL.
Cc1ccc[n+](Cc2ccc([N+](=O)[O-])cc2)c1.[Br-] gave a solubility kinetic of over 46.4 µg/mL.
COc1ccc(S(=O)(=O)N2CCC(C)CC2)cc1OC gave a solubility kinetic of 44.8 µg/mL (≈ 150 µM).
Cc1ccccc1CN1CCN(CC(=O)NC(C)c2ccccc2)CC1 (stereo unspecified) showed a solubility kinetic of 47.8 µg/mL (≈ 136 µM).
Work on O=C1CN(/N=C/c2ccc([N+](=O)[O-])o2)C(=O)N1 yielded a solubility kinetic of over 35.7 µg/mL.
Compound CCCN1CCC(NC(=S)Nc2ccc(OC)c(OC)c2)CC1 has a solubility kinetic of over 50.6 µg/mL.
